Results on 7 molecules are retold here after PMC9078534 (RSC Advances, 2018).

The nature of one data set: in vivo. As to conditions: male, SD, rat.
The conditions of data set [1]: cited from earlier work.
The next data set has as its system Caco-2 monolayers. The data set can be described thus: Transport of SAL across normoxic and hypoxic Caco-2 monolayers (Papp). Type of data set: in vitro ADME, human. The method, then: (§1) The human colorectal adenocarcinoma cell line, Caco-2 cell, was obtained from Cell Resource Center, Institute of Basic Medical Sciences (CAMS). Caco-2 cells, a recognized cell model used for permeability study, were cultured in minimum essential medium (MEM) containing 10% fetal bovine serum, 1% nonessential amino acids, 100 U ml^−1 penicillin, and 100 μg ml^−1 streptomycin, and then were kept in a humidified incubator at 37 °C with 5% CO2. To obtain differentiated monolayers, Caco-2 cells were seeded in Transwell® chambers (12 mm, 0.4 μm pore size; Corning, MA, USA) at a density of 1 × 10^5 cells per wells and cultured for 21 days. TEER (trans-epithelial electrical resistance) was used to monitor the integrity of the monolayer. Monolayer with TEER above 600 Ω cm^2 was employed in the present study. Caco-2 cells grown in Transwell® at passage 32–45 were used for the experiment. After cultivation for 21 days, normoxic incubations were performed in a tissue culture incubator at 37 °C, 5% CO2, while hypoxic incubations were performed in an oxygen-control hypoxic glove box at 37 °C, 1% oxygen content for 24 h.[15] The enzyme activities of LDH, CS and the protein expression of HIF-1α were monitored for hypoxic model validation. The morphological study on hypoxic Caco-2 monolayer was performed with the aid of transmission electron microscopy (TEM) (JEM-2100F, Japan). The expression level of tight junction proteins (ZO-1) in Caco-2 cell under normoxic and hypoxic conditions was measured by western blotting.
(§2) According to the method published in Nature Protocols, the transport test was performed in Hank's balanced salt solution (HBSS) containing 5.56 mM glucose, 10 mM HEPES and 1.26 mM CaCl2.[16] Before experiment, the monolayers were washed twice with HBSS medium and pre-incubated for 30 min. […] Equal volume of the blank HBSS buffer was added back to the chambers after sampling to maintain a constant systemic volume. The collected samples were stored at −20 °C until UPLC-MS/MS analyses.
(§3) The Caco-2 monolayer was pre-incubated with phlorizin (100 μM) for 30 min before the transport experiment.
A general note: Caco-2 monolayers are a common model of the intestinal barrier.

Assay in data set [2]: as above
The format is in vitro ADME, human. As to conditions: human, SAL 10 μM. The protocol:
as §1, §2, §3

The conditions of data set [3]: male, SD, rat, in vivo.
Data set [4] is described as follows: Stability of SAL in samples during UPLC-MS/MS method validation. The format is physicochemical. The method, then: To prepare the samples for calibration curves, 10 μl of IS working solution (containing 100 μg ml^−1 paracetamol) and 10 μl of analyte work solution was added to 100 μl of blank rat plasma. Approximately 300 μl methanol was then added to the above plasma sample for protein precipitation. After centrifuging the mixture at 11 300g for 10 min, the supernatant was collected followed by being evaporated to dryness under nitrogen at room temperature. The residue was reconstituted with 100 μl of methanol. After being centrifuged at 11 300g for 10 min, an aliquot of 5 μl supernatant was injected into the UPLC-MS/MS system for analyses. […] For all QC samples in rat biological matrices, the % RSD of both intra-day and inter-day precision was below 10.4%, and the accuracy was within the range of 85.4 to 100%, which met the criteria from FDA.

Data set [5] in a line: Protein binding of SAL in rat plasma by ultrafiltration. The format is in vitro ADME. The following applies: three spiking concentrations (100, 500, 1000 μg ml^−1), 37 °C, 30 min. The method, then: After incubation at 37 °C for 30 min, an aliquot of 500 μl plasma was added into the upper part of the centrifugal filter device (Amicon®, cutoff value: 10 kDa). The centrifuge was then conducted in a rate of 11 300g for 30 min at room temperature. SAL in the original sample and ultrafiltrate were determined by UPLC-MS/MS method.

A short description of data set [6]: Renal clearance (CLr) of SAL and PAH in hypoxic and normoxic rats. Type of data set: in vivo. As to conditions: rat, plasma and urine, iv. The method, then:
The animal surgery was conducted as described in literature.[23,24] Briefly, the cannulae were inserted into rat right jugular veins, left femoral veins, and bladders after an i.m. injection of 90 mg kg^−1 ketamine and 9 mg kg^−1 xylazine. All surgical procedures were performed under anaesthesia and in a clean surgical room with sterilized instruments. […] Urine from the bladder was collected through the catheter into pre-weighed micro-centrifuge tubes and the volume of urine collected during each 30 min period was calculated by weight. To equilibrate and establish a steady rate of urine excretion, rats were continuously infused with warm saline solution containing mannitol (5%, w/v) for 1 h at a rate of 16 μl min^−1 through the femoral veins (n = 5 each group) using a Sage Instruments Syringe Pump (Cambridge, MA, USA). During the experiment, the rat was placed on a heating pad to maintain body temperature. […] After each blood sampling, an aliquot of 200 μl saline was infused into the jugular to replace the volume of blood taken.

In a further data set the test system is CBG. Also noted: method as in doi:10.1021/symposium. As to conditions: other phenolic glycosides; cited from earlier work.
The subject of a further data set is SULT2A1. Put plainly: Kinetics of p-tyrosol sulfate formation from p-tyrosol in rat liver S9 fraction (RLS), sulfation by SULT2A1. Type of data set: in vitro ADME. The protocol:
The formation rate of p-tyrosol sulfate could therefore serve as an indicator for the hepatic metabolic rate of SAL. […] The incubation was carried out at 37 °C and terminated by the addition of an equal volume of ice-cold methanol containing 5 μM IS.[18] The content of p-tyrosol sulfate was determined by the UPLC-MS/MS described above. […] All the experiments were carried out in triplicate.
GraphPad Prism® was employed to analyze enzyme kinetic data.

Substrate in data set [7]: OC[C@H]1O[C@@H](OCCc2ccc(O)cc2)[C@H](O)[C@@H](O)[C@@H]1O
Put plainly: cells, lysate or membranes named. As to conditions: pH 7.4, 37.0 °C.

The mark [8] stands for this setting: background statement, no reference given.
Setting [9] is: Caco-2, hypoxic Caco-2 monolayer model (1% O2, 24 h).
Setting [10] is: Caco-2, normoxic Caco-2 monolayer model.

Where a name gives a salt, the structure may show the parent alone. Read-outs that look alike come from different tables or passages of the source.

In “in vivo” (iv, 444 ug/kg, MRT(0→t)), `OC[C@H]1O[C@@H](OCCc2ccc(O)cc2)[C@H](O)[C@@H](O)[C@@H]1O` [SAL, salidroside] had an MRT last of 48.3 min. Moreover, the half-life in the data set “in vivo” (iv, 444 ug/kg, t1/2) came to 67.2 ± 11.8 min. Besides, the Cmax in “in vivo” (po, 4.44 mg/kg, Cmax) was determined as 2070 ± 264 ng/mL; in [3] (po, 4.44 mg/kg), 1835.4 ± 690.5 ng/mL. In addition, the Tmax in the data set “in vivo” (po, 4.44 mg/kg, Tmax) was 36 min; in [3] (po, 4.44 mg/kg), 48.0 ± 16.4 min. In [1] (after oral administration to rats, literature and preliminary studies), the “share of parent compound that undergoes deglycosylation and sulfation” value is recorded as “more than 50%”. In addition, in [1] (setting [8]), the “share of administered SAL excreted from urine as parent compound” value is recorded as “about 20%”. Also, in data set [1] (setting [8]), the “share of eliminated SAL accounted for by renal clearance” value is reported as “no more than 20%”. Further, the “ratio between Papp(A→B) and Papp(B→A)” value was found to be 2.53 in the data set with Caco-2 monolayers (hypoxic Caco-2 monolayer model); 10.0 in the data set with Caco-2 monolayers (normoxic Caco-2 monolayer model); 2.24 in the data set with Caco-2 monolayers (normoxic Caco-2 monolayer model, after addition of SGLT1 inhibitor (phlorizin 100 μM)). The apical-to-basolateral permeability (Papp A→B) at 180 min, 10 μM in [2] (setting [9]) came out at 1.77 ± 0.18 ×10⁻⁶ cm/s; in data set [2] (setting [10]), 0.88 ± 0.11 ×10⁻⁶ cm/s. For the same molecule, the Papp B→A at 180 min, 10 μM in data set [2] (setting [9]) amounted to 0.7 ± 0.2 ×10⁻⁶ cm/s; in data set [2] (setting [10]), 0.088 ± 0.02 ×10⁻⁶ cm/s. Moreover, the “MRT(0→t)” value in data set [3] (iv, 444 ug/kg) is 70.9 ± 7.9 min. In addition, in data set [3] (iv, 444 ug/kg), the t1/2 stood at 97.5 ± 12.5 min. For the same molecule, the stability entry in data set [4] (auto-sampler (4 °C) for 24 h) and in data set [4] (−80 °C for 30 days) was “stable” throughout. In addition, in [5], the “plasma binding ratio, hypoxic versus normoxic rats” value is given as “similar”. The CL renal in [6] (444 ug/kg, hypoxic rats, SAL 444 μg kg^−1 i.v. bolus) was 0.497 mL/min/kg; in data set [6] (444 ug/kg, normoxic rats, SAL 444 μg kg^−1 i.v. bolus), 1.77 mL/min/kg.

On to quercetin 4-glycoside, for which, in the data set with CBG, the Km was 65 µM.

With daidzein 4-glycoside, the Km with CBG was 50 µM.

In the case of `O=S(=O)(O)Oc1ccc(CCO)cc1` [p-Tyrosol sulfate, p-tyrosol sulfate], in data set [1] (rats, systemic circulation), the “share of total metabolites of SAL” value is “over 50%”.

Regarding `OCCc1ccc(O)cc1` [p-tyrosol], in the data set on SULT2A1 (hypoxic RLS), the “Clint of SULT2A1” value came out at 10.4 ± 2.7 µL/min/mg and the “Vmax of SULT2A1 (p-tyrosol sulfate formation from p-tyrosol)” value is 78.3 ± 11.2 nmol/min/mg. For the same molecule, in the data set with SULT2A1 (normoxic RLS), the “Clint of SULT2A1” value is 5.8 ± 1.2 µL/min/mg and the “Vmax of SULT2A1 (p-tyrosol sulfate formation from p-tyrosol)” value amounted to 23.3 ± 4.4 nmol/min/mg.

For the molecule `Nc1ccc(C(=O)NCC(=O)O)cc1` [PAH, p-aminohippuric acid, reference compound], the CL renal in data set [6] (30 mg/kg, hypoxic rats, PAH 30 mg kg^−1 i.v. bolus) is 0.818 mL/min/kg; in data set [6] (30 mg/kg, normoxic rats, PAH 30 mg kg^−1 i.v. bolus), 3.28 mL/min/kg.

B1: cytosolic β-glucosidase (CBG) (Rattus norvegicus) (protein)
chain: MAFPVGFGWGAATAAYQVEGGWDADGRGPCVWDTFTHQGGERVFENQTGDVACGSYTLWEEDLKCIKQLGLTHYRFSLSWSRLLPDGTTGFINQKGIDYYNKIIDDLLKNGVTPIVAIYHFDLPQALEDLGGWLSEAIVEAFDKYAQFCFSTFGDRVKQWLTINEPNILALLAYDMGIFAPGVPHIGIGGYQAAHNLIKAHARSWHSYDSLFREEQKGFVSLSLFFCWLEPADPNSEIDQEATKRAINFHLDFFAKPIFIDGDYPDVVKSQVASMSKKQGYPSSRLPEFTEEEKKMIKGTADFFAVQYYTTRLVRHQENKKRELGFLQDVEIEFFPNPFWKNVGWIYVVPWGIRKLLKYIKDTYNNPVIYITENGFPQCDPPSLDDTQRWEYFRQTFQELFKAIHVDDVNLQLYCAWSLLDNFEWNNGYSRRFGLFHVDFEDPARPRTPYRSAKEYAKVIRDNGLAGAM
In the case of B1, the Michaelis-Menten constant (Km) in [7] (other: hypoxic RLS) was found to be 19.5 ± 3.1 µM; in [7] (other: normoxic RLS), 5.2 ± 0.6 µM.

One may read the MRT last as a mean duration of stay, worked out from the concentration-time curve. A word on the half-life: it is the time needed for the level to fall by half in the phase considered. Low values mean fast loss, high ones slow loss. For orientation: Cmax means the maximum level reached in the sampled fluid or tissue. What is called Tmax is the time at which the peak concentration occurs. The term Papp A→B denotes how fast a substance crosses the layer from the apical side. The low end stands for poor permeation, the high end for ready permeation. Broadly, the Papp B→A is how fast a substance crosses the layer from the basolateral side. What is called Km is the substrate concentration at which the rate is half of its maximum.
